Results on one sequence are retold here after patent US7893199B2, “Peptides having neutrophil-stimulating activity” (National University Corporation Gunma University, priority 2006, dated 2011).

For test [1], the system named is differentiated HL-60 cells. Briefly: migration activity (Chemotaxis Index) of differentiated HL-60 cells. The format is cell-based, human. Here is the method:
(3) Measurement of Migration Activity
The cells were collected by centrifuging the suspension of the differentiated HL-60 cells (1,000 rpm, 5 minutes, 4° C.). After that, the following operation was repeated three times to wash the cells: 10% FBS-RPMI1640 was added to the cells; the mixture was suspended by inversion; and the mixture was centrifuged again (1,000 rpm, 5 minutes, 4° C.). Then, a medium (10% FBS-RPMI1640) was added so that a cell density was 4×10^6 cells/ml, thereby a cell suspension was prepared. Subsequently, 1 ml of each peptide solution (dissolved in 10% FBS-RPMI 1640) was transferred to each well of a 24-well plate, and the plate was incubated at 37° C. for 20 minutes. After that, 500 μl of the cell suspension (2×10^6 cells) were put in Chemotaxicell (KURABO […] LTD., 3 μm) and the Chemotaxicell was set in a plate, followed by incubation in the presence of 5% CO2 at 37° C. for 1 hour. Then, the Chemotaxicell was removed and the solution in each well of the plate was pipetted. The cells migrated to the plate side was suspended well and the number of the cells were measured. Note that the migration activity by the peptide was represented by a ratio of the number of the cells to the number of the cells passing the Chemotaxicell at the time of non-stimulation (Chemotaxis Index, CI).

The subject of test [2] is G protein in the differentiated HL-60 cell membrane fraction. Briefly: G protein activation ability (GTP hydrolysis) in cell membrane fraction. The format is biochemical, human. How it is done:
(4) Measurement of G Protein Activation Ability
The cells were collected by centrifuging the suspension of the differentiated HL-60 cells (1,000 rpm, 5 minutes, 4° C.). After that, the following operation was repeated three times to wash the cells: ice-cooled PBS was added to the cells; the mixture was suspended by inversion; and the mixture was centrifuged (1,000 rpm, 5 minutes, 4° C.). Then, the precipitated cells were suspended in a buffer for preparing a cell membrane fraction (20 mM Tris-HCl, 250 mM sucrose, 1.5 mM MgCl2, 3 mM benzamidine hydrochloride monohydrate, 1 μM leupeptin, 1 μM PMSF, 2 μg/ml trypsin inhibitor, pH 7.5) and a cell homogenate was prepared using nitrogen pressing-depressing type cell homogenizing apparatus (nitrogen pressure: 350 psi). After that, the resultant was ultracentrifuged (20,000 g, 4° C., 30 minutes) to remove the supernatant, and the precipitate was suspended in a membrane fraction buffer (20 mM Tris-HCl, 1 mM EDTA, 1 mM DTT, 77.5 mTIU/ml aprotinin, pH 7.5) and used as a cell membrane fraction. After dispensed, the cell membrane fraction was stored at −80° C. The activity of the G protein was quantified using the activity to hydrolyze GTP to GDP as an index. […] The mixture was centrifuged (15,000 rpm, 1 minute, 4° C.), and the radioactivity of the supernatant was measured.

The target in the next test is T1, bovine Gi1-G protein (Bos taurus, UniProt P63097).
T1 construct: made in house; host or cells: E. coli
In words: G protein activation ability (GTP hydrolysis) with purified Gi1. Type of test: biochemical.

The target in test [3] is T2, heat shock 70 kDa protein 8 isoform 1 (SEQ ID NO: 52) (Homo sapiens, UniProt P11142).
T2 construct: endogenous in cells; host or cells: neutrophil-like differentiated HL-60 cells
In words: chemical crosslinking experiment, streptavidin beads, electrophoresis (receptor identification). Type of test: binding. Conditions: differentiated HL-60 cells. Here is the method:
Then, in order to identify directly the receptor molecules to which these functional peptides are bound, the following chemical crosslinking experiment was performed. That is, the HL-60 cells differentiated into the neutrophil-like cells were suspended in HBHS (not containing 0.1% BSA). The suspension was centrifuged (1,000 rpm, 5 minutes, 4° C.) and the supernatant was removed. The cells were suspended again in the HBHS not containing BSA so as to have the cell density of 5.6×10^6 cells/ml. The obtained cell suspension was preincubated at 37° C. for 10 minutes at first, and 1/10 volume of mitocryptide-3 and -5, [Cys^0]mitocryptide-3, [Cys^0]mitocryptide-5, [Cys^24]mitocryptide-3, and peptides obtained by introducing biotin into the N terminals thereof (N-biotinyl-mitocryptide-3, N-biotinyl-mitocryptide-5, N-biotinyl-[Cys^0]mitocryptide-3, N-biotinyl-[Cys^0]mitocryptide-5, and N-biotinyl-[Cys^24]mitocryptide-3) were added to have the final concentration of 10 μM, followed by incubation at 37° C. for 30 minutes. After that, the cell suspension was centrifuged (5,000 rpm, 4° C., 1 minute) and the supernatant was removed. The resultant cells were resuspended in HBHS not containing BSA and centrifuged again to wash the cells. 1 ml of a buffer for dissolving cells (100 mM NaCl, 20 mM Tris-HCl, 1 mM EDTA, 77.5 mTIU/ml aprotinin, 1 μM leupeptin, 1 μg/ml pepstatin A, 1 μg/ml phosphoramidone, 1% CHAPS, pH 7.5) with respect to 1 ml of the original cell suspension was added to the cell precipitate, and the mixture was incubated at 4° C. for 30 minutes to dissolve the cells, thereby a cell lysate was prepared. The cell lysate was centrifuged (15,000 rpm, 4° C., 15 minutes) and the supernatant was centrifuged again in the same condition. The obtained supernatant was incubated with streptavidin beads at 4° C. for 30 minutes, then, the beads were washed by centrifugation with the buffer for dissolving cells three times. Further, the beads were treated by heat at 100° C. for 10 minutes in the buffer for dissolving cells, and the mixture was centrifuged. The obtained supernatant was subjected to an SDS gel electrophoresis to separate the contained protein. Then, the gel was stained by silver stain method, thereby the proteins were analyzed. […] As a result, two specific spots were detected (FIG. 15-A). Therefore, the protein was extracted and degraded with trypsin, and then, the degraded proteins were analyzed by mass spectrometry.

Where no end group is shown, it is not given here.

T1 sequence (P63097 whole entry): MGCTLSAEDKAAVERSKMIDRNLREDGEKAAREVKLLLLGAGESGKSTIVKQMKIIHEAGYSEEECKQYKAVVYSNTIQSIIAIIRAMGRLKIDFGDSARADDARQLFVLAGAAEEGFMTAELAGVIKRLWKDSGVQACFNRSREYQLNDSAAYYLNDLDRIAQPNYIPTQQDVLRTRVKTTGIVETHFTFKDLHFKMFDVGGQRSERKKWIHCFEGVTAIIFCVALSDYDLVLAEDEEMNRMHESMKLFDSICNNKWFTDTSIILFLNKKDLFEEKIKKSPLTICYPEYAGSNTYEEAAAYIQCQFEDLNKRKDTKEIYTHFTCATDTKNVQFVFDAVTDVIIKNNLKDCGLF
T2 sequence (P11142 whole entry, canonical isoform): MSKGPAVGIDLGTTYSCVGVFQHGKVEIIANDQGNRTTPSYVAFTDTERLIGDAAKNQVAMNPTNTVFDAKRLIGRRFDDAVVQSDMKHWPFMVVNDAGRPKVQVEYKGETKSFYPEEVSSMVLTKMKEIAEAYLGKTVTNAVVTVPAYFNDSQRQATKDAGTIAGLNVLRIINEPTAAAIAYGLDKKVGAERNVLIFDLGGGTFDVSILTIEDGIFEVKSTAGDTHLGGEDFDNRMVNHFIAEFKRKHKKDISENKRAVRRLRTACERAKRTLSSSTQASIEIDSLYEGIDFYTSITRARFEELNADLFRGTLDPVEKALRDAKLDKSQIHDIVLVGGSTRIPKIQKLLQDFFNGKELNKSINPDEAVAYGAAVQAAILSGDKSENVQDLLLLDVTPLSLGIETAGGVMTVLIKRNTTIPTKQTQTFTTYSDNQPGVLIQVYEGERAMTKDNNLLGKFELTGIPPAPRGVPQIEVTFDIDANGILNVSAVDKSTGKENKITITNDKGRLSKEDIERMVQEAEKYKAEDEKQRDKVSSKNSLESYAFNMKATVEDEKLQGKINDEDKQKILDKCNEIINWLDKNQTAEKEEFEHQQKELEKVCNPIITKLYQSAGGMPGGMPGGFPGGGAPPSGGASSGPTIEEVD

In the case of MLWNLLALHQIGQRTISTASHRH [No. 019], in test [1], the “concentration of migration activity compared with that of β-hexosaminidase-secreting activity” value is “confirmed at the concentration lower than the concentration at which β-hexosaminidase-secreting activity was confirmed” and the “desensitization of migration activity with increasing concentration of the peptide” value is listed as “subjected to desensitization completely”. Besides, the “activation of G protein” value in test [2] is listed as “activated”. Besides, the “activation of purified Gi1 protein” value at bovine Gi1-G protein was “activated”. Moreover, the “competition for binding of the protein to N-biotinyl-[Cys^0]mitocryptide-5” value in test [3] was “competitive”.
